Test results: patent publication US20260137703A1, “2-AMINO-PYRIDO[2,3-D]PYRIMIDIN-7(8H)-ONE AND 7-AMINO-1-PYRIMIDO[4,5-D]PYRIMIDIN-2(1 H)-ONE DERIVATIVES AS EGFR INHIBITORS FOR THE TREATMENT OF CANCER” (Cancer Research Technology Limited, priority 2022, published 2026)
pIC50: −log10 of the molar value.

target: CtermHisTag-mEGFR Wild type (Homo sapiens, UniProt P00533); assay: biochemical
Sequence (P00533 whole entry): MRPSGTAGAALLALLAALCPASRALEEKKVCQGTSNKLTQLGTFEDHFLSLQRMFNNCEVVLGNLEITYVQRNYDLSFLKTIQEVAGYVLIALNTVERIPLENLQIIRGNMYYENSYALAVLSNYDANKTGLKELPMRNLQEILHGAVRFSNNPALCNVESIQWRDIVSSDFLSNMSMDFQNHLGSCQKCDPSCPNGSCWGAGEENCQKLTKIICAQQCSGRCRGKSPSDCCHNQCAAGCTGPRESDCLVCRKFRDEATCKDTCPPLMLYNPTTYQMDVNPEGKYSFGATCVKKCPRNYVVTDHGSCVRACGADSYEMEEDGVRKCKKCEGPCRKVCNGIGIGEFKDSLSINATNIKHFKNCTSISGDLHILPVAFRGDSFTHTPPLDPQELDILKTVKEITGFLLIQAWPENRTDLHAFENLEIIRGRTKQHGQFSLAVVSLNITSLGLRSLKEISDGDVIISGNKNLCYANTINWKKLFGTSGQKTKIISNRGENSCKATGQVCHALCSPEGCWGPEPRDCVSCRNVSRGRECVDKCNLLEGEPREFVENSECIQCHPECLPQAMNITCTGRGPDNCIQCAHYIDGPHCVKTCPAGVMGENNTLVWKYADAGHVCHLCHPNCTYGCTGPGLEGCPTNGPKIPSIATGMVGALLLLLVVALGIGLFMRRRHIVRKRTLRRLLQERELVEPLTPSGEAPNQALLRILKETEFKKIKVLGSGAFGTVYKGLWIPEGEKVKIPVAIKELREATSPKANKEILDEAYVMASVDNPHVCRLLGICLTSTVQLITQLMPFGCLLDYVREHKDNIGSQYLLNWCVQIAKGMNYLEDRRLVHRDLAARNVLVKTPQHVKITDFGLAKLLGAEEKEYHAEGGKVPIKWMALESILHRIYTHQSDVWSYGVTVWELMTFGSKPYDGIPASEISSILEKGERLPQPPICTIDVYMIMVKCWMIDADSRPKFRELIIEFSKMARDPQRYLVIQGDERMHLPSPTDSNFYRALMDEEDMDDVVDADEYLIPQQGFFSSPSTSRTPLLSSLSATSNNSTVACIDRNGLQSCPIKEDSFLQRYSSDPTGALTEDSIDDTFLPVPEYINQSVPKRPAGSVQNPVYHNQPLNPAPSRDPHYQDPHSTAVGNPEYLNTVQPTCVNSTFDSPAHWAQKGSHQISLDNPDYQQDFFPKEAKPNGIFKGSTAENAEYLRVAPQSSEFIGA

SMILES | pIC50
C=CC(=O)Nc1cc(=O)n(-c2ccccc2)c2nc(Nc3ccccc3OC)ncc12 [Example 2, N-(2-((2-Methoxyphenyl)amino)-7-oxo-8-phenyl-7,8-dihydropyrido[2,3-d]pyrimidin-5-yl)acrylamide] | < 5.00
C#Cc1nc(=O)n(-c2ccccc2)c2nc(Nc3ccccc3OC)ncc12 [Example 4, 4-Ethynyl-7-[(2-methoxyphenyl)amino]-1-phenylpyrimido[4,5-d][1,3]diazin-2-one] | > 6.00
C#Cc1cc(=O)n(-c2ccccc2)c2nc(Nc3ccccc3)ncc12 [Example 5] | 5.00 to 6.00
C#Cc1cc(=O)n(-c2ccccc2)c2nc(Nc3ccc(OCCN(C)C)cc3)ncc12 [Example 13, 2-({4-[2-(Dimethylamino)ethoxy]phenyl}amino)-5-ethynyl-8-phenylpyrido[2,3-d]pyrimidin-7-one] | > 6.00
C#Cc1cc(=O)n(-c2ccccc2)c2nc(Nc3ccc(N4CCOCC4)cc3OC)ncc12 [Example 35, 5-Ethynyl-2-((2-methoxy-4-morpholinophenyl)amino)-8-phenylpyrido[2,3-d]pyrimidin-7(8H)-one] | > 6.00
C#Cc1cc(=O)n(-c2ccccc2)c2nc(Nc3ccccc3CO)ncc12 [Example 41, 5-Ethynyl-2-{[2-(hydroxymethyl)phenyl]amino}-8-phenylpyrido[2,3-d]pyrimidin-7-one] | < 5.00
C#Cc1cc(=O)n(C)c2nc(Nc3ccc(N(C)CCN(C)C)cc3OC)ncc12 [Example 42, 2-[(4-{[2-(Dimethylamino)ethyl](methyl)amino}-2-methoxyphenyl)amino]-5-ethynyl-8-methylpyrido[2,3-d]pyrimidin-7-one] | 5.00 to 6.00
C#Cc1cc(=O)n(C)c2nc(Nc3ccccc3OC)ncc12 [Example 48, 5-Ethynyl-2-[(2-methoxyphenyl)amino]-8-methylpyrido[2,3-d]pyrimidin-7-one] | < 5.00
C#Cc1cc(=O)n(-c2cccc(NC(C)=O)c2)c2nc(Nc3ccccc3OC)ncc12 [Example 56, N-(3-(5-Ethynyl-2-((2-methoxyphenyl)amino)-7-oxopyrido[2,3-d]pyrimidin-8(7H)-yl)phenyl)acetamide] | < 5.00
C#Cc1cc(=O)n(-c2cccc(NS(C)(=O)=O)c2)c2nc(Nc3ccccc3OC)ncc12 [Example 57, N-(3-(5-Ethynyl-2-((2-methoxyphenyl)amino)-7-oxopyrido[2,3-d]pyrimidin-8(7H)-yl)phenyl)methanesulfonamide] | < 5.00
C#Cc1cc(=O)n(-c2cccc(NS(=O)(=O)C3CC3)c2)c2nc(Nc3ccccc3OC)ncc12 [Example 58, N-(3-(5-Ethynyl-2-((2-methoxyphenyl)amino)-7-oxopyrido[2,3-d]pyrimidin-8(7H)-yl)phenyl)cyclopropanesulfonamide] | < 5.00
C#Cc1cc(=O)n(C2CCCC2)c2nc(Nc3ccccc3OC)ncc12 [Example 74, 8-Cyclopentyl-5-ethynyl-2-((2-methoxyphenyl)amino)pyrido[2,3-d]pyrimidin-7(8H)-one] | < 5.00
C#Cc1cc(=O)n(-c2ccc(OC)cc2OC)c2nc(Nc3ccccc3OC)ncc12 [Example 75, 8-(2,4-Dimethoxyphenyl)-5-ethynyl-2-[(2-methoxyphenyl)amino]pyrido[2,3-d]pyrimidin-7-one] | < 5.00
C#Cc1cc(=O)n(C(C)C)c2nc(Nc3ccccc3OC)ncc12 [Example 83, 5-Ethynyl-8-isopropyl-2-[(2-methoxyphenyl)amino]pyrido[2,3-d]pyrimidin-7-one] | < 5.00
C#Cc1cc(=O)n(-c2ccc(OC)cc2)c2nc(Nc3ccccc3OC)ncc12 [Example 84, 5-ethynyl-8-(4-methoxyphenyl)-2-[(2-methoxyphenyl)amino]pyrido[2,3-d]pyrimidin-7-one] | < 5.00
C#Cc1cc(=O)n(-c2cccc(NC(=O)C=C)c2)c2nc(Nc3ccccc3OC)ncc12 [Example 85, N-(3-(5-Ethynyl-2-((2-methoxyphenyl)amino)-7-oxopyrido[2,3-d]pyrimidin-8(7H)-yl)phenyl)acrylamide] | 5.00 to 6.00
C#Cc1c(-c2ccccc2)c(=O)n(C)c2nc(Nc3ccc(N(C)CCN(C)C)cc3OC)ncc12 [Example 121, 2-[(4-[[2-(dimethylamino)ethyl](methyl)amino]-2-methoxyphenyl)amino]-5-ethynyl-8-methyl-6-phenylpyrido[2,3-d]pyrimidin-7-one] | 5.00 to 6.00
C#Cc1c(-c2ccccc2Cl)c(=O)n(C)c2nc(Nc3ccc(N(C)CCN(C)C)cc3OC)ncc12 [Example 122, 6-(2-chlorophenyl)-2-[(4-[[2-(dimethylamino)ethyl](methyl)amino]-2-methoxyphenyl)amino]-5-ethynyl-8-methylpyrido[2,3-d]pyrimidin-7-one] | > 6.00
C#Cc1c(-c2ccccc2Cl)c(=O)n(C)c2nc(Nc3ccccc3OC)ncc12 [Example 123, 6-(2-chlorophenyl)-5-ethynyl-2-[(2-methoxyphenyl)amino]-8-methylpyrido[2,3-d]pyrimidin-7-one] | < 5.00

SMILES | pIC50
C#Cc1c(-c2ccccc2Cl)c(=O)n(C)c2nc(Nc3ccccc3)ncc12 [Example 124, 6-(2-chlorophenyl)-5-ethynyl-8-methyl-2-(phenylamino)pyrido[2,3-d]pyrimidin-7-one] | < 5.00
C#Cc1c(-c2ccccc2Cl)c(=O)n(C)c2nc(NCCCCN3CCN(C)CC3)ncc12 [Example 130, 6-(2-chlorophenyl)-5-ethynyl-8-methyl-2-{[4-(4-methylpiperazin-1-yl)butyl]amino}pyrido[2,3-d]pyrimidin-7-one] | < 5.00
C#Cc1c(-c2ccccc2Cl)c(=O)n(C)c2nc(Nc3ccc(N(C)CCN(C)C)c(C)c3)ncc12 [Example 133, 6-(2-chlorophenyl)-2-[(4-{[2-(dimethylamino)ethyl](methyl)amino}-3-methylphenyl)amino]-5-ethynyl-8-methylpyrido[2,3-d]pyrimidin-7-one] | > 6.00
C#Cc1c(-c2ccccc2OC)c(=O)n(C)c2nc(Nc3ccc(N(C)CCN(C)C)cc3)ncc12 [Example 138, 2-[(4-{[2-(dimethylamino)ethyl](methyl)amino}phenyl)amino]-5-ethynyl-6-(2-methoxyphenyl)-8-methylpyrido [2,3-d]pyrimidin-7-one] | 5.00 to 6.00
C#Cc1c(Cc2ccccc2)c(=O)n(C)c2nc(Nc3ccc(N(C)CCN(C)C)cc3OC)ncc12 [Example 140, 6-benzyl-2-[(4-[[2-(dimethylamino)ethyl](methyl)amino]-2-methoxyphenyl)amino]-5-ethynyl-8-methylpyrido[2,3-d]pyrimidin-7-one] | 5.00 to 6.00
C#Cc1c(C(=O)NC)c(=O)n(-c2ccccc2)c2nc(Nc3ccccc3OC)ncc12 [Example 141, 5-ethynyl-2-[(2-methoxyphenyl)amino]-N-methyl-7-oxo-8-phenylpyrido[2,3-d]pyrimidine-6-carboxamide] | < 5.00
C#Cc1c(N)c(=O)n(-c2ccccc2)c2nc(Nc3ccccc3OC)ncc12 [Example 142, 6-amino-5-ethynyl-2-[(2-methoxyphenyl)amino]-8-phenylpyrido[2,3-d]pyrimidin-7-one] | < 5.00
C#Cc1c(NC(C)=O)c(=O)n(-c2ccccc2)c2nc(Nc3ccccc3OC)ncc12 [Example 143, N-[5-ethynyl-2-[(2-methoxyphenyl)amino]-7-oxo-8-phenylpyrido[2,3-d]pyrimidin-6-yl]acetamide] | < 5.00
C#Cc1c(C#N)c(=O)n(-c2ccccc2)c2nc(Nc3ccccc3OC)ncc12 [Example 145, 5-ethynyl-2-[(2-methoxyphenyl)amino]-7-oxo-8-phenylpyrido[2,3-d]pyrimidine-6-carbonitrile] | < 5.00
C#Cc1c(C(=O)N(C)C)c(=O)n(-c2ccccc2)c2nc(Nc3ccccc3OC)ncc12 [Example 146, 5-ethynyl-2-[(2-methoxyphenyl)amino]-N,N-dimethyl-7-oxo-8-phenylpyrido[2,3-d]pyrimidine-6-carboxamide] | < 5.00
C#Cc1c(N(C)C)c(=O)n(-c2ccccc2)c2nc(Nc3ccccc3OC)ncc12 [Example 147, 6-(dimethylamino)-5-ethynyl-2-[(2-methoxyphenyl)amino]-8-phenylpyrido[2,3-d]pyrimidin-7-one] | < 5.00
C=Cc1cc(=O)n(-c2ccccc2)c2nc(Nc3ccccc3OC)ncc12 [Example 152, 5-ethenyl-2-[(2-methoxyphenyl)amino]-8-phenylpyrido[2,3-d]pyrimidin-7-one] | < 5.00
C=Cc1cc(=O)n(-c2ccccc2OC)c2nc(Nc3ccccc3OC)ncc12 [Example 153, 8-(2-Methoxyphenyl)-2-((2-methoxyphenyl)amino)-5-vinylpyrido[2,3-d]pyrimidin-7(8H)-one] | < 5.00
C=Cc1cc(=O)n(-c2ccc(OC)cc2OC)c2nc(Nc3ccccc3OC)ncc12 [Example 154, 8-(2,4-dimethoxyphenyl)-5-ethenyl-2-[(2-methoxyphenyl)amino]pyrido[2,3-d]pyrimidin-7-one] | < 5.00
C=Cc1c(C#N)c(=O)n(-c2ccccc2)c2nc(Nc3ccccc3OC)ncc12 [Example 159, 5-ethenyl-2-[(2-methoxyphenyl)amino]-7-oxo-8-phenylpyrido[2,3-d]pyrimidine-6-carbonitrile] | 5.00 to 6.00
C=Cc1c(C#N)c(=O)n(-c2ccc(OC)cc2OC)c2nc(Nc3ccccc3OC)ncc12 [Example 160, 8-(2,4-dimethoxyphenyl)-2-((2-methoxyphenyl)amino)-7-oxo-5-vinyl-7,8-dihydropyrido[2,3-d]pyrimidine-6-carbonitrile] | 5.00 to 6.00
C=Cc1c(-c2ccccc2Cl)c(=O)n(C)c2nc(Nc3ccccc3OC)ncc12 [Example 161, 6-(2-chlorophenyl)-5-ethenyl-2-[(2-methoxyphenyl)amino]-8-methylpyrido[2,3-d]pyrimidin-7-one] | < 5.00
C=Cc1c(-c2ccccc2)c(=O)n(C)c2nc(Nc3ccccc3OC)ncc12 [Example 162, 5-ethenyl-2-[(2-methoxyphenyl)amino]-8-methyl-6-phenylpyrido[2,3-d]pyrimidin-7-one] | < 5.00
C=Cc1c(-c2c(Cl)cccc2Cl)c(=O)n(C)c2nc(Nc3ccccc3OC)ncc12 [Example 163, 6-(2,6-dichlorophenyl)-5-ethenyl-2-[(2-methoxyphenyl)amino]-8-methylpyrido[2,3-]pyrimidin-7-one] | < 5.00
